Test system in one data set: not listed separately
The experiment in a line: Cytotoxicity against HCEC assessed as […] cell viability at 1% concentration by MTT assay relative to control. It counts as functional, Homo sapiens. A general note: Tetrazolium assays rely on reduction of a dye to a coloured formazan, in cell work by metabolically active cells.
In the case of `CCO[C@@H]1O[C@H](CO)[C@@H](O)[C@H](O)[C@H]1NC(=O)c1ccc(S(N)(=O)=O)cc1`, the Activity is recorded as 80%.

For `CC(=O)N[C@@H]1O[C@H](CO)[C@@H](O)[C@H](O)[C@H]1NC(=O)c1ccc(S(N)(=O)=O)cc1`, the Activity was 80%.

As to `CCCO[C@@H]1O[C@H](CO)[C@@H](O)[C@H](O)[C@H]1NC(=O)c1ccc(S(N)(=O)=O)cc1`, the Activity turned out to be 80%.

For `CC(C)O[C@@H]1O[C@H](CO)[C@@H](O)[C@H](O)[C@H]1NC(=O)c1ccc(S(N)(=O)=O)cc1`, the Activity was found to be 80%.

Consider `CO[C@@H]1O[C@H](CO)[C@@H](O)[C@H](O)[C@H]1NC(=O)c1ccc(S(N)(=O)=O)cc1`, for which the Activity came to 80%.

Take `CCC(=O)N[C@@H]1O[C@H](CO)[C@@H](O)[C@H](O)[C@H]1NC(=O)c1ccc(S(N)(=O)=O)cc1`: the Activity was determined as 80%.

Test system in a further data set: not listed separately
The experiment in a line: Solubility of the compound. It counts as physicochemical.
For `CCO[C@@H]1O[C@H](CO)[C@@H](O)[C@H](O)[C@H]1NC(=O)c1ccc(S(N)(=O)=O)cc1`, the solubility worked out at 2.3%.

For the compound `CC(=O)Nc1nnc(S(N)(=O)=O)s1` [ACETAZOLAMIDE], the solubility turned out to be 0.21%.

`CC(=O)N[C@@H]1O[C@H](CO)[C@@H](O)[C@H](O)[C@H]1NC(=O)c1ccc(S(N)(=O)=O)cc1` displayed a solubility of 2.5%.

Compound `CCCO[C@@H]1O[C@H](CO)[C@@H](O)[C@H](O)[C@H]1NC(=O)c1ccc(S(N)(=O)=O)cc1` had a solubility of 2%.

On to `CC(C)O[C@@H]1O[C@H](CO)[C@@H](O)[C@H](O)[C@H]1NC(=O)c1ccc(S(N)(=O)=O)cc1`, for which the solubility amounted to 2%.

Compound `CCN[C@H]1CN(CCCOC)S(=O)(=O)c2sc(S(N)(=O)=O)cc21` [BRINZOLAMIDE] had a solubility of 0.05%.

In turn, `CCN[C@H]1C[C@H](C)S(=O)(=O)c2sc(S(N)(=O)=O)cc21` [DORZOLAMIDE] gave a solubility of 0.67%.

On to `CO[C@@H]1O[C@H](CO)[C@@H](O)[C@H](O)[C@H]1NC(=O)c1ccc(S(N)(=O)=O)cc1`, for which the solubility came out at 2.5%.

Compound `CCC(=O)N[C@@H]1O[C@H](CO)[C@@H](O)[C@H](O)[C@H]1NC(=O)c1ccc(S(N)(=O)=O)cc1` showed a solubility of 2.5%.

Another data set has as its target Carbonic anhydrase 9 (Homo sapiens, UniProt Q16790). The experiment in a line: Inhibition of recombinant human carbonic anhydrase 9 using 4-nitrophenylacetate as substrate.
For the compound `CCO[C@@H]1O[C@H](CO)[C@@H](O)[C@H](O)[C@H]1NC(=O)c1ccc(S(N)(=O)=O)cc1`, the IC50 (as a rule, the concentration that gives 50% inhibition) was found to be 152 nM.

As to `CC(=O)N[C@@H]1O[C@H](CO)[C@@H](O)[C@H](O)[C@H]1NC(=O)c1ccc(S(N)(=O)=O)cc1`, the IC50 was 227 nM.

With `CCCO[C@@H]1O[C@H](CO)[C@@H](O)[C@H](O)[C@H]1NC(=O)c1ccc(S(N)(=O)=O)cc1`, the half-maximal inhibitory concentration (IC50) came to 241 nM.

With `CC(C)O[C@@H]1O[C@H](CO)[C@@H](O)[C@H](O)[C@H]1NC(=O)c1ccc(S(N)(=O)=O)cc1`, the concentration for half-maximal inhibition (IC50) was 142 nM.

As to `NS(=O)(=O)c1ccc(C(=O)O)cc1` [CARZENIDE], the IC50 was determined as 24000 nM.

For `CO[C@@H]1O[C@H](CO)[C@@H](O)[C@H](O)[C@H]1NC(=O)c1ccc(S(N)(=O)=O)cc1`, the IC50 stood at 90 nM.

Consider `CCC(=O)N[C@@H]1O[C@H](CO)[C@@H](O)[C@H](O)[C@H]1NC(=O)c1ccc(S(N)(=O)=O)cc1`, for which the IC50 was found to be 276 nM.

Test system in a further data set: not listed separately
Kind of data set: Cytotoxicity against HCEC assessed as reduction in cell viability at 2% concentration by MTT assay relative to control. In kind it is functional, Homo sapiens.
Take `CCO[C@@H]1O[C@H](CO)[C@@H](O)[C@H](O)[C@H]1NC(=O)c1ccc(S(N)(=O)=O)cc1`: the Activity was determined as 77%.

Regarding `CC(=O)N[C@@H]1O[C@H](CO)[C@@H](O)[C@H](O)[C@H]1NC(=O)c1ccc(S(N)(=O)=O)cc1`, the Activity is given as 77%.

Take `CCCO[C@@H]1O[C@H](CO)[C@@H](O)[C@H](O)[C@H]1NC(=O)c1ccc(S(N)(=O)=O)cc1`: the Activity is listed as 77%.

With `CC(C)O[C@@H]1O[C@H](CO)[C@@H](O)[C@H](O)[C@H]1NC(=O)c1ccc(S(N)(=O)=O)cc1`, the Activity is on record as 77%.

In the case of `CO[C@@H]1O[C@H](CO)[C@@H](O)[C@H](O)[C@H]1NC(=O)c1ccc(S(N)(=O)=O)cc1`, the Activity stood at 77%.

On to `CCC(=O)N[C@@H]1O[C@H](CO)[C@@H](O)[C@H](O)[C@H]1NC(=O)c1ccc(S(N)(=O)=O)cc1`, for which the Activity was 77%.

The values are drawn from ChEMBL document CHEMBL5030527, “Novel carbohydrate-based sulfonamide derivatives as selective carbonic anhydrase II inhibitors: Synthesis, biological and molecular docking analysis” (Bioorg Med Chem Lett, 2021).
